Values of other authors in patent US9446050B2, “Method for treatment of mesothelioma” (THE BRIGHAM AND WOMEN'S HOSPITAL, INC., priority 2011, dated 2016).

What was measured:
mesothelioma [1] = details: large-dose single treatment in combination with leucovin
mesothelioma [2] = details: single agent

| SMILES | efficacy rate (mesothelioma [1]) [%] | median overall survival (mesothelioma [2]) [months] | response rate (mesothelioma [2]) [%] |
| --- | --- | --- | --- |
| CN(Cc1cnc2nc(N)nc(N)c2n1)c1ccc(C(=O)N[C@@H](CCC(=O)O)C(=O)O)cc1 [methotrexate] | 37 |  |  |
| Nc1nc2[nH]cc(CCc3ccc(C(=O)N[C@@H](CCC(=O)O)C(=O)O)cc3)c2c(=O)[nH]1 [pemetrexed] |  | 10.7 | 14.1 |
